PubChem BioAssay AID2305 (GlaxoSmithKline (GSK), 2010)

These molecules were tested on P. falciparum 3D7 growth, pLDH absorbance (assay: P. falciparum 3D7 growth inhibition, dose response, strain 3D7 (AID 2305)).

Point of comparison: `Cn1cnc(CCNC(=O)c2ccc(-c3cccc(-c4nc5ccc(C(F)(F)F)cc5[nH]4)c3)cc2)c1`, IC50 0.73 µM. Against it:
- CN1CCN(c2ccc(-c3cccc(NC(=O)c4cccc([N+](=O)[O-])c4)c3)nn2)CC1 — within 1.5-fold, 0.53 µM
- O=S(=O)(NCCN1CCCC1)c1ccc(-c2cccc(CNCCc3cccs3)c2)s1 — within 1.5-fold, 0.7 µM
- COc1ccc(CCN(C)CCCN2CCC(NC(=O)c3cccc4c(=O)c5ccccc5[nH]c34)CC2)cc1OC — within 1.5-fold, 0.69 µM
- CCc1c[nH]c2c(N3CCCCC3=O)cc(C(=O)N[C@@H](Cc3ccccc3)[C@H](O)CNCc3cccc(OC)c3)cc12 — 4.3-fold lower, 0.17 µM
- O=C(c1cncc(-c2ccccc2)c1)N(Cc1cncn1Cc1ccccc1F)CC1CC1 — within 1.5-fold, 0.8 µM
- CCN(CC)CCCC(C)Nc1ccnc2ccc(-c3ccccc3)cc12 (configuration not stated) — within 1.5-fold, 0.65 µM
- CCOC(=O)c1nc2ccc(SC3CCCCC3)cn2c1Br — within 1.5-fold, 1.06 µM
- COc1ccc2nccc([C@@H](O)CN3CCC(NCc4ccc5c(c4)NC(=O)CO5)CC3)c2c1 — 2.3-fold higher, 1.66 µM
- COc1ccc2nccc(N3CCCN(CCNCc4ccc5c(n4)NC(=O)CS5)CC3)c2n1 — 4.9-fold lower, 0.15 µM
- Nc1ccc(-c2cnc3[nH]cc(-c4ccc(C(=O)O)cc4)c3c2)cn1 — within 1.5-fold, 0.96 µM
- CCCc1cc(Cc2cnc(N)nc2N)c2cccnc2c1OC — within 1.5-fold, 0.67 µM
- Cc1cc(N[C@@H](Cc2ccccc2)C(=O)NCc2cccc(F)c2)nc(NCCc2cccs2)n1 — within 1.5-fold, 0.62 µM
- Cc1cc(N[C@@H](Cc2ccccc2)C(=O)NCCOc2ccccc2)nc(NCCc2ccccc2)n1 — within 1.5-fold, 1.03 µM
- COc1cc2ccccc2c(CNCCCCCCNCc2c(OC)c(OC)cc3ccccc23)c1OC — 1.5-fold higher, 1.11 µM
- CCOCCCNc1sc(S(=O)(=O)c2ccccc2)nc1S(=O)(=O)c1ccc(C)cc1 — within 1.5-fold, 0.81 µM
- O=C(/C=C/c1ccc(Cl)c(Cl)c1)NCCCCCN1CCC(c2c[nH]c3cc(O)ccc23)CC1 — within 1.5-fold, 0.75 µM
- Oc1ccc2[nH]c(-c3cccc(F)c3)nc2c1CN1CCC(O)(c2ccccc2)CC1 — within 1.5-fold, 0.99 µM
- CCOCCCn1c(=N)c(C(=O)NCc2ccc(OC)cc2)cc2c(=O)n3cccc(C)c3nc21 — within 1.5-fold, 1.06 µM
- Cc1c(-c2cccc(C(C)(C)NCCCN3CCCCC3)c2)cnc(N)c1C — within 1.5-fold, 0.94 µM
- CC(C)(C)C/C=C\c1ccc(C(=O)NCC2CC2)cc1 — within 1.5-fold, 0.85 µM
- O=C(NCCCCCN1CCCN(C(=O)Nc2ccc(F)c(C(F)(F)F)c2)CC1)[C@@H]1C[C@H]1c1ccc(Cl)c(Cl)c1 — within 1.5-fold, 1.03 µM
- CC[C@H]1CN(Cc2ccccc2Br)CC[C@H]1CCCc1ccnc2ccc(O)cc12 — within 1.5-fold, 1 µM
- COc1cc2c(OC)cccc2cc1CNCCCCCCNCc1cc2cccc(OC)c2cc1OC — within 1.5-fold, 0.82 µM
- COc1ccc(CCON2C(N)=NC(N)=NC2(C)C)cc1OC — 73-fold lower, 0.01 µM
- O=c1cc(NCCC(CNCc2cc3ccccc3o2)NCc2cc(Br)cc(Br)c2)[nH]c2ccccc12 (configuration not stated) — 1.7-fold higher, 1.21 µM
- COc1ccc2nccc([C@@H](O)CN3CCC(NC(=O)C(c4ccsc4)N4CCN(c5ccccc5)CC4)CC3)c2c1 (some centres not stated) — 1.7-fold lower, 0.44 µM
- COc1cc(NC(=O)N2CCc3cc(OC)c(OCCN4CCCCC4)cc32)cc(C(F)(F)F)c1 — 1.6-fold higher, 1.15 µM
- O=C(c1cccc(-c2ccc(-c3nc4ccc(C(F)(F)F)cc4[nH]3)cc2)c1)N1CCCCC1CN1CCC(O)C1 (configuration not stated) — 1.6-fold lower, 0.47 µM
- O=C(/C=C/c1ccc(Cl)c(Cl)c1)NCC1CCC(N2CCC(c3c[nH]c4ccccc34)CC2)CC1 (configuration not stated) — 4.3-fold lower, 0.17 µM
- CCCCCCCNCCNc1cc(C)nc2ccccc12 — 1.9-fold lower, 0.39 µM
- CCN(CC)c1ccc(C(c2ccc(N(CC)CC)cc2)c2cccc([N+](=O)[O-])c2)cc1 — 1.9-fold lower, 0.38 µM
- O=C(/C=C/c1ccc(Cl)c(Cl)c1)NC1CCC(CN2CCC(c3coc4ccccc34)CC2)CC1 (configuration not stated) — within 1.5-fold, 0.83 µM
- CCC1(CC)N=C(N)N=C(N)N1OCc1ccc(Cl)c(Cl)c1 — 12-fold lower, 0.06 µM
- CC(C)(C)c1ccc(Cn2nc(C(=O)N3CCN(C(=O)C4CCCO4)CC3)c3ccccc32)cc1 (configuration not stated) — 1.8-fold higher, 1.32 µM
- O=C1COc2ccc(S(=O)(=O)N3CCC[C@@H]3CCN3CCC(c4c[nH]c5cnccc45)CC3)cc2N1 — within 1.5-fold, 0.86 µM
- c1cc(-c2ccc(CNCc3ccsc3)cc2)cc(-c2nc3ccccc3[nH]2)c1 — 4.6-fold lower, 0.16 µM
- COc1cccc(Nc2nccc(NCC(O)c3ccc(C(F)(F)F)cc3)n2)c1 (configuration not stated) — within 1.5-fold, 0.66 µM
- OC(CNc1ccnc(Nc2ccc(Cl)cc2)n1)c1ccc(C(F)(F)F)cc1 (configuration not stated) — within 1.5-fold, 0.77 µM
- O=C(Nc1ccc(Oc2ccccc2)cc1)N(Cc1ccc(-c2ccc(CN3CCNCC3)cc2)cc1)C1CCN(Cc2ccccc2)CC1 — within 1.5-fold, 0.89 µM
- CCCc1ccc(NC(=O)c2ccc(CN3CCCN(Cc4cccc(O)c4)CC3)cc2)cc1 — 1.8-fold lower, 0.4 µM
- Cc1c(C(=O)[C@@H]2C[C@H]2CN2CCC(N3CCCC3)CC2)sc2ccccc12 — 1.9-fold higher, 1.4 µM
- O=C(Nc1cccc(-c2ccc(-c3nc4ccc(C(F)(F)F)cc4[nH]3)s2)c1)c1ccncc1 — within 1.5-fold, 0.68 µM
- CC(=NO)C1=C(O)C(c2ccccc2)N(c2ccccc2)C1=O (configuration not stated) — within 1.5-fold, 0.7 µM
- COc1ccc(NC(=O)Nc2ccc(-c3ccccc3)cc2)cc1Cn1nc(Cl)c(N2CCCNCC2)cc1=O — 2-fold lower, 0.36 µM
- CCN(CC)CCN(Cc1ccc(-c2ccc(C(F)(F)F)cc2)cc1)C(=O)Cn1c(CCc2cccc(F)c2F)nc(=O)c2cc(F)ccc21 — within 1.5-fold, 0.83 µM
- CCOc1cc(C=NNc2nc(C)cc(-n3nc(C)cc3C)n2)ccc1O — within 1.5-fold, 1.08 µM
